Holding throughout (experiment): NCI-60 cell line screen, 48 h
The subject of experiment [1] is NCI-H23.
The test system of experiment [2] is SF-268.
Experiment [3] has as its system ACHN.
The test system of experiment [4] is LXFL 529.
The subject of experiment [5] is A549.
Experiment [6] relates to Malme-3M.
In experiment [7] the test system is UACC-257.
The subject of experiment [8] is OVCAR-4.
The subject of experiment [9] is SF-295.
Experiment [10] deals with HT-29.
The test system of experiment [11] is SK-OV-3.
Experiment [12] deals with OVCAR-3.
Experiment [13] relates to LOX IMVI.
For experiment [14], the system named is OVCAR-5.
Experiment [15] has as its system CCRF-CEM.
Experiment [16] deals with MOLT-4.
Experiment [17] deals with K562.
The test system of experiment [18] is BT-549.
Experiment [19] deals with Hs-578T.
In experiment [20] the test system is T47D.

Consider twelve compounds from ChEMBL document CHEMBL1201862, “PubChem BioAssay data set” (2004).

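Tested at 5 concentrations; 48 h exposure; 96-well plates; endpoints linearly interpolated, else capped at highest concentration. The concentration for 50% growth inhibition is given as GI50.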 Active and inactive are the calls of the source. No stated cut-off is given here; in the data, active = GI50 up to about 1.1 µM and inactive = higher.

Regarding `O=C(Nc1cc(Cl)c(Cl)cc1Cl)C(=O)C(C(=O)c1ccc2ccccc2c1)C1OC(=O)c2ccccc21` (configuration not stated), the GI50 in experiment [1] is 3.66 µM (inactive); in [2], > 10 µM (inactive); in [3], 16.7 µM (inactive); in experiment [4], 10.6 µM (inactive); in experiment [5], 19.1 µM (inactive); in experiment [6], 13.2 µM (inactive). Also, the GI50 in [7] is 14.4 µM (inactive); in experiment [8] it was > 10 µM (inactive); in experiment [9], 6.59 µM (inactive); in [10] it was 18.2 µM (inactive); in experiment [11], 60.4 µM (inactive); in experiment [12], 16.3 µM (inactive). Moreover, the GI50 in [13] is 15.5 µM (inactive); in [14] it was 16.5 µM (inactive).
With `O=C1CNNC(Cn2nc(-c3ccccc3)c3ccccc3c2=O)=N1`, the GI50 in experiment [1], in experiment [15], in experiment [2], in [3], in [4] and in experiment [16] was > 100 µM (inactive) throughout. In addition, the GI50 in [5], in [6], in [7], in experiment [8], in experiment [9] and in experiment [10] was > 100 µM (inactive) each time. Besides, the GI50 in experiment [17], in experiment [11], in experiment [12] and in experiment [14] was > 100 µM (inactive) in each case.
As to `CCCCNC(=O)C1C2CCC(O2)C1C(=O)O` (configuration not stated), the GI50 in experiment [1] is 29.4 µM (inactive); in experiment [2], 17.7 µM (inactive); in experiment [3], 22.6 µM (inactive); in [4] it was 16 µM (inactive); in experiment [16], 18.1 µM (inactive); in experiment [5] it was 31 µM (inactive). For the same compound, the GI50 is 21.5 µM (inactive) in experiment [6]; 22.8 µM (inactive) in experiment [7]; 29.6 µM (inactive) in experiment [8]; 23.1 µM (inactive) in experiment [9]; 23.1 µM (inactive) in experiment [10]; 23.1 µM (inactive) in [11]. For the same compound, the GI50 is 16 µM (inactive) in experiment [12], 16.5 µM (inactive) in experiment [13] and > 100 µM (inactive) in [14].
Turning to `COC(=O)CC(=O)C[P+](c1ccccc1)(c1ccccc1)c1ccccc1`, the GI50 in experiment [1] was 141 µM (inactive); in [15], 55.3 µM (inactive); in experiment [2] it was > 218 µM (inactive); in [3] it was > 218 µM (inactive); in experiment [4], 89.9 µM (inactive); in experiment [16], 74 µM (inactive). The GI50 in experiment [5] was 197 µM (inactive); in [6], 192 µM (inactive); in [7], 114 µM (inactive); in [9], 116 µM (inactive); in [10], 121 µM (inactive); in experiment [17] it was 68.5 µM (inactive). For the same compound, the GI50 in experiment [11] was > 218 µM (inactive); in experiment [12], 69.7 µM (inactive); in [13], > 218 µM (inactive).
On to `CCCCCCCCCCC/C(=N/O)c1ccc(O)c2ncccc12`, for which the GI50 in [1] is 10.4 µM (inactive); in experiment [2], 2.9 µM (inactive); in experiment [3] it was 2.21 µM (inactive); in experiment [4], 2.23 µM (inactive); in experiment [5], 5.69 µM (inactive); in [6], 2.47 µM (inactive). In addition, the GI50 in experiment [7] is 3.25 µM (inactive); in experiment [8], 2.61 µM (inactive); in [9], 2.71 µM (inactive); in experiment [10], 4.11 µM (inactive); in experiment [13] it was 2.37 µM (inactive); in experiment [14], 3.15 µM (inactive).
Take `COc1ccc2nc3cc(Cl)ccc3c(NCCC(=O)OCC(O)C(O)C(O[C@H](C)C(=O)NC(C)C(=O)NC(CCC(N)=O)C(=O)OCc3ccccc3)C(C=O)NC(C)=O)c2c1` (some centres not stated): the GI50 in experiment [1] was 14.4 µM (inactive); in experiment [15], 23.2 µM (inactive); in experiment [2], 17.9 µM (inactive); in [3], 18.1 µM (inactive); in experiment [4], 17.3 µM (inactive); in experiment [16] it was 15.4 µM (inactive). Moreover, the GI50 in experiment [5] is 17.4 µM (inactive); in experiment [6], > 100 µM (inactive); in [7], 95.7 µM (inactive); in experiment [8] it was 20 µM (inactive); in experiment [9] it was 18.2 µM (inactive); in [10] it was 17.8 µM (inactive). The GI50 was 14 µM (inactive) in experiment [17], 18.8 µM (inactive) in [11], 19.2 µM (inactive) in experiment [12] and 23.8 µM (inactive) in [14].
As to `C=C1CC(COc2ccc3c(C)c(Cl)c(=O)oc3c2)(c2ccccc2)OC1=O` (configuration not stated), the GI50 is 1.57 µM (inactive) in experiment [1]; 0.302 µM (active) in [15]; 4.46 µM (inactive) in experiment [2]; 1.53 µM (inactive) in experiment [18]; 2.86 µM (inactive) in [3]; 0.805 µM (active) in experiment [16]. Further, the GI50 is 11.9 µM (inactive) in experiment [5]; 1.67 µM (inactive) in [6]; 1.61 µM (inactive) in experiment [7]; 1.67 µM (inactive) in experiment [8]; 7.13 µM (inactive) in [9]; 1.24 µM (inactive) in experiment [10]. Further, the GI50 in experiment [17] is 0.422 µM (active); in experiment [19], 5.58 µM (inactive); in experiment [20], 2.04 µM (inactive); in [11], 5.92 µM (inactive); in experiment [12], 2.14 µM (inactive); in experiment [13], 0.887 µM (active). Also, the GI50 in [14] was 12.4 µM (inactive).
Regarding `CCOC(=O)c1ccc2nc(-c3ccc(S(=O)(=O)F)cc3)cc(O)c2c1`, the GI50 is 21.6 µM (inactive) in experiment [1]; 30.7 µM (inactive) in experiment [15]; 60.8 µM (inactive) in experiment [2]; 37.8 µM (inactive) in experiment [18]; 24.2 µM (inactive) in [3]; 36.8 µM (inactive) in [16]. The GI50 in experiment [5] was 53.3 µM (inactive); in experiment [6], 25.1 µM (inactive); in experiment [7], 51.8 µM (inactive); in experiment [8] it was 65.3 µM (inactive); in experiment [9], 39.8 µM (inactive); in experiment [10], 62.1 µM (inactive). The GI50 was 42.8 µM (inactive) in experiment [17]; 54.8 µM (inactive) in experiment [19]; 25.1 µM (inactive) in [20]; 38.9 µM (inactive) in [11]; 19.6 µM (inactive) in [12]; 36.5 µM (inactive) in experiment [13]. In experiment [14], the GI50 was > 100 µM (inactive).
For the compound `CN(C)c1ccc(C=c2c3ccccc3n3c2c2c([n+]3C)CCCC2)cc1`, the GI50 is 0.269 µM (active) in experiment [1]; 0.0465 µM (active) in experiment [15]; 0.183 µM (active) in experiment [2]; 0.186 µM (active) in [18]; 0.314 µM (active) in experiment [3]; 0.116 µM (active) in [16]. Also, the GI50 in [5] was 0.0728 µM (active); in experiment [6], 0.17 µM (active); in [7] it was 0.301 µM (active); in experiment [8], 0.255 µM (active); in [9] it was 0.0991 µM (active); in experiment [10], 0.114 µM (active). Moreover, the GI50 was 0.023 µM (active) in [17]; 0.351 µM (active) in [19]; 0.0191 µM (active) in experiment [20]; 0.32 µM (active) in experiment [11]; 0.152 µM (active) in experiment [12]; 0.143 µM (active) in experiment [13]. In addition, the GI50 in experiment [14] was 0.463 µM (active).
Regarding `O=C(O)c1c(CC(Cc2ccccc2)C(=O)O)ccc2c1CCC2` (configuration not stated), the GI50 in experiment [1], in experiment [15], in [2], in [18], in experiment [3] and in experiment [16] was > 100 µM (inactive) each time. Besides, the GI50 in experiment [5], in experiment [6], in [7], in experiment [8], in experiment [9] and in experiment [10] was > 100 µM (inactive) throughout. For the same compound, the GI50 is > 100 µM (inactive) in experiment [17]; > 100 µM (inactive) in [19]; 66.5 µM (inactive) in experiment [20]; > 100 µM (inactive) in experiment [11]; > 100 µM (inactive) in experiment [12]; > 100 µM (inactive) in [13]. Further, the GI50 in experiment [14] was > 100 µM (inactive).
As to `COC(=O)C1=C(C)NC(C)=C([N+](=O)[O-])C1c1cccc(N=O)c1` (configuration not stated), the GI50 was 18.5 µM (inactive) in [1]; 4.83 µM (inactive) in experiment [15]; 17.5 µM (inactive) in experiment [2]; 16.7 µM (inactive) in experiment [18]; 12.3 µM (inactive) in [3]; 3.18 µM (inactive) in [16]. In addition, the GI50 in experiment [5] is 18.9 µM (inactive); in experiment [6], 12.5 µM (inactive); in experiment [7], 12.5 µM (inactive); in [8] it was 11.9 µM (inactive); in experiment [9] it was 21.7 µM (inactive); in [10] it was 16.8 µM (inactive). For the same compound, the GI50 in experiment [17] is 4.47 µM (inactive); in experiment [19], 15.2 µM (inactive); in experiment [20], 12.1 µM (inactive); in experiment [11], 21.9 µM (inactive); in experiment [12], 15 µM (inactive); in [13] it was 16.1 µM (inactive). In addition, the GI50 in [14] is 16.9 µM (inactive).
In the case of `Cc1cccc(C)c1NC(=O)C(=O)CC(=O)/C=C/c1ccccc1`, the GI50 in experiment [1], in experiment [15], in [2], in experiment [18], in experiment [3] and in experiment [16] was > 100 µM (inactive) throughout. Further, the GI50 in experiment [5], in [6], in experiment [7], in [8], in experiment [9] and in [10] was > 100 µM (inactive) throughout. Further, the GI50 in experiment [17], in experiment [19], in experiment [20], in experiment [11], in [12] and in [13] was > 100 µM (inactive) each time. The GI50 in experiment [14] is > 100 µM (inactive).
